Our source for the ED60 values is ChEMBL document CHEMBL1124496, “Darmstoff analogues. 3. Actions of choline esters of acetal phosphatidic acids on visceral smooth muscle” (1989).

The species entered for this assay is Cavia porcellus. As to the kind of experiment: Effective dose for relaxation of guinea pig taenia coli strips. Format: functional.

As to `CCCCC/C=C/C/C=C/CCCCCCCC1OCC(COP(=O)([O-])OCC[N+](C)(C)C)O1` (stereo not drawn), the ED60 amounted to 50 µM.
As for `CCCCCCCCCCCCCCCC1OCC(COP(=O)([O-])OCC[N+](C)(C)C)O1` (stereo not drawn), the ED60 was found to be 57 µM.
The compound `CCCCCCCC/C=C/CCCCCCCC1OCC(COP(=O)([O-])OCC[N+](C)(C)C)O1` (cis isomer) showed an ED60 of 200 µM.
